Target: Proto-oncogene tyrosine-protein kinase receptor Ret (Homo sapiens, UniProt P07949)
Assay: RET Kinase Inhibition Assay
Settings: pH 7.4; 22 °C

Sequence of Proto-oncogene tyrosine-protein kinase receptor Ret (P07949 whole entry): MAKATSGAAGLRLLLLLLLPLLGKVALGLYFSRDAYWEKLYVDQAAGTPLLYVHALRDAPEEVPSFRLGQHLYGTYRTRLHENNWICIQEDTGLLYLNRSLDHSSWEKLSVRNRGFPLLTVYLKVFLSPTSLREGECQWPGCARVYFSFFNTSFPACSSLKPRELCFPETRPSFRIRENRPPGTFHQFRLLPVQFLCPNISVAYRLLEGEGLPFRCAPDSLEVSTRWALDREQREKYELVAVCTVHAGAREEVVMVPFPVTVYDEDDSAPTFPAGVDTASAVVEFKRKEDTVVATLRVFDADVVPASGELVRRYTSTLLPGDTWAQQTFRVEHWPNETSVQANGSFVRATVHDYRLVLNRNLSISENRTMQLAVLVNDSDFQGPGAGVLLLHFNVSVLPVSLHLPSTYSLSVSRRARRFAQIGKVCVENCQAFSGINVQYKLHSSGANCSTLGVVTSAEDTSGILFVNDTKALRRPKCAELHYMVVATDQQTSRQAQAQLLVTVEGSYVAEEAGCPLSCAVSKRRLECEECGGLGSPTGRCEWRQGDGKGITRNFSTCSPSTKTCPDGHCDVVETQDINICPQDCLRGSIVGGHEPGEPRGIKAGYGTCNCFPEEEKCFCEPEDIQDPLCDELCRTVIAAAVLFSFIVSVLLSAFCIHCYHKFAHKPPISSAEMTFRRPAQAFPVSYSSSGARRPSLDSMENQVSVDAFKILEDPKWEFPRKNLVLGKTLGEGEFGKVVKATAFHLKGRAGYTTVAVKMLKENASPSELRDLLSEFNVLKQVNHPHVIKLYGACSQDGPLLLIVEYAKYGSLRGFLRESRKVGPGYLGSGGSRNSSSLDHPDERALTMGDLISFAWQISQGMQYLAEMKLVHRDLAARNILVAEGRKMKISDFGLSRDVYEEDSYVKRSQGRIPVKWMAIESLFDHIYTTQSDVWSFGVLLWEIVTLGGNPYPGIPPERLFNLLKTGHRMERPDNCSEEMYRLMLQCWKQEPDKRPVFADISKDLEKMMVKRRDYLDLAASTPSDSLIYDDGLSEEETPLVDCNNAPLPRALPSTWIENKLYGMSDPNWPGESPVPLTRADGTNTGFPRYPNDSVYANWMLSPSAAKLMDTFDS

IC50: > 1 µM
SMILES: Cc1ccc(O)cc1Nc1cc(C(F)(F)F)nc2ccc(-c3ccncc3)cc12 [4-methyl-3-{[6-(pyridin-4-yl)-2-(trifluoromethyl)quinolin-4-yl]amino}phenol]

— BindingDB's records for doi:10.1016/j.bmcl.2007.07.104 (Glaxosmithkline, 2007)
